The molecules below were run against p38 MAP kinase (Homo sapiens, UniProt Q16539) (assay: p38 MAP Kinase Assay (33P incorporation into myelin basic protein, filter plate)). Conditions: Table 1; MKK6-activated p38, MBP substrate, 50 minutes.
Format: biochemical
Experimental: The activated p38 is then diluted 1:6 with assay buffer, and 20 μl mixed with 25 μl of MBP mix (300 μl 10×strength assay buffer, 300 μl of 10 mM DTT & 10 mM sodium orthovanadate, 1.7 ml H2O, 50 μCi γ^33P-ATP, 200 μl of myelin basic protein (MBP) (5 mg/ml)) and added to 96 well plates along with 5 μl of various dilutions of the test compound in DMSO (up to 10%). The reaction is allowed to proceed for 50 minutes before being stopped with an excess of ortho-phosphoric acid (30 μl at 2%).
γ^33P-ATP which remains unincorporated into the myelin basic protein is separated from phosphorylated MBP on a Millipore MAPH filter plate. The wells of the MAPH plate are wetted with 0.5% orthophosphoric acid, and then the results of the reaction are filtered with a Millipore vacuum filtration unit through the wells. Following filtration, the residue is washed twice with 200 μl of 0.5% orthophosphoric acid. Once the filters have dried, 25 μl of Microscint 20 scintillant is added, and then counted on a Packard Topcount for 30 seconds.

p38 MAP kinase, sequence (Q16539 whole entry): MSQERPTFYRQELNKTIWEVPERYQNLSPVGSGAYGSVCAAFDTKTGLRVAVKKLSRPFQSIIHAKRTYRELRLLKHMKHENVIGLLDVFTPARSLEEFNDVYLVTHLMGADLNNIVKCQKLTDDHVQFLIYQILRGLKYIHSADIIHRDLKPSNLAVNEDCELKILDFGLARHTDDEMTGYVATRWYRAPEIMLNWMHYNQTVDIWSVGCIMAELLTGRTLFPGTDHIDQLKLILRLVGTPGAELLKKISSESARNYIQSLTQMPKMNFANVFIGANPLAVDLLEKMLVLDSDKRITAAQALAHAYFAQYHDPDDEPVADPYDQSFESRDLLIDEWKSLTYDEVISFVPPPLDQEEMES

Question: With O=S(=O)(c1ccccc1)N(c1ccc(Cl)c(COc2cccnc2)c1)S(=O)(=O)c1ccccc1 [Compound 56, N-[4-Chloro-3-(pyridin-3-yloxymethyl)-phenyl]-bisbenzenesulfonamide] as the molecule, how does the IC50 read?
Answer: Its IC50 is less than 1000 µM.

Question: Nc1ncccc1OCc1cccc2ccoc12 [Compound 47] was tested. Which IC50 did it give?
Answer: The IC50 was less than 1000 µM.

Question: For O=C(Nc1ccc(Cl)c(COc2cccnc2)c1)c1cccc(C(F)(F)F)c1 [Compound 69, N-[4-Chloro-3-(pyridin-3-yloxymethyl)-phenyl]-3-trifluoromethyl-benzamide], which IC50 is on record?
Answer: The IC50 was less than 20 µM.

Question: How did the IC50 turn out when O=C(Nc1ccc(Cl)c(COc2cccnc2)c1)Oc1ccccc1 [Compound 79, [4-Chloro-3-(pyridin-3-yloxymethyl)-phenyl]-carbamic acid phenyl ester] was run?
Answer: Its IC50 is less than 20 µM.

Question: With O=C(Nc1ccc(Cl)c(COc2cccnc2)c1)c1ccncc1 [Compound 53, N-[4-Chloro-3-(pyridin-3-yloxymethyl)-phenyl]-isonicotinamide] as the molecule, how does the IC50 read?
Answer: The IC50 was less than 200 µM.

Question: For c1cc(COc2cccnc2)cc(COc2cccnc2)c1 [Compound 58], which IC50 is on record?
Answer: The IC50 was less than 1000 µM.

Question: How did the IC50 turn out when Nc1ncccc1OCc1c(F)cccc1Cl [Compound 22] was run?
Answer: The IC50 was less than 1000 µM.

Question: Nc1ncccc1OCc1csc2ccccc12 [Compound 40] was tested. Which IC50 did it give?
Answer: The IC50 was less than 1000 µM.

Question: With Nc1ncccc1OCc1cccc(C(=O)NCC2CC2)c1 [Compound 34] as the molecule, how does the IC50 read?
Answer: Its IC50 is less than 1000 µM.

Question: How did the IC50 turn out when Nc1ncccc1OCc1cccc(OC(F)(F)F)c1 [Compound 24] was run?
Answer: Its IC50 is less than 10000 µM.

Question: Nc1ncccc1OCc1cccc(Cl)c1 [Compound 9, 2-amino-3-(3-chlorobenzyloxy)pyridine] was tested. Which IC50 did it give?
Answer: Its IC50 is less than 1000 µM.

Question: For O=C(Nc1ccc(Cl)c(COc2cccnc2)c1)c1cccc(Cl)c1 [Compound 70, 3-Chloro-N-[4-chloro-3-(pyridin-3-yloxymethyl)-phenyl]-benzamide], which IC50 is on record?
Answer: The IC50 was less than 20 µM.

Question: Which IC50 does the source give for Clc1ncccc1OCc1ccccc1 [Compound 10, 3-Benzyloxy-2-chloropyridine] here?
Answer: The IC50 was less than 2000 µM.

Question: With CC(C)(C)c1cccc(C(=O)Nc2ccc(Cl)c(COc3cccnc3)c2)c1 [Compound 65, 3-tert-Butyl-N-[4-chloro-3-(pyridin-3-yloxymethyl)-phenyl]-benzamide] as the molecule, how does the IC50 read?
Answer: The IC50 was less than 2 µM.

Question: O=C(Nc1ccc(F)c(COc2cccnc2)c1)c1cc(F)cc(N2CCOCC2)c1 [Compound 62, 3-Fluoro-N-[4-fluoro-3-(pyridin-3-yloxymethyl)-phenyl]-5-morpholin-4-yl-benzamide] was tested. Which IC50 did it give?
Answer: The IC50 was less than 2 µM.

Question: How did the IC50 turn out when Clc1cccc(Cl)c1COc1ccc(NCc2ccccc2)nc1 [Compound 51] was run?
Answer: Its IC50 is less than 200 µM.

Question: Which IC50 does the source give for NC(=O)Nc1ccc(Cl)c(COc2cccnc2)c1 [Compound 63, [4-Chloro-3-(pyridin-3-yloxymethyl)-phenyl]-urea] here?
Answer: Its IC50 is less than 20 µM.

Question: Which IC50 does the source give for O=C1c2ccccc2CN1c1ccc(F)c(COc2cccnc2)c1 [Compound 80] here?
Answer: Its IC50 is less than 1000 µM.

Question: With O=C1c2ccccc2C(O)N1c1ccc(Cl)c(COc2cccnc2)c1 (stereo not shown) [Compound 73] as the molecule, how does the IC50 read?
Answer: The IC50 was less than 200 µM.

Question: With Nc1ncccc1OCc1ccccc1-c1ccccc1 [Compound 2] as the molecule, how does the IC50 read?
Answer: Its IC50 is less than 10 µM.

Question: With O=C(Nc1ccc(F)c(COc2cccnc2)c1)c1ccccc1 [Compound 59, N-[4-Fluoro-3-(pyridin-3-yloxymethyl)-phenyl]-benzamide] as the molecule, how does the IC50 read?
Answer: The IC50 was less than 200 µM.

Question: For Nc1ncccc1OCc1ccc(F)c(F)c1 [Compound 14, 2-amino-3-(3,4-difluorobenzyloxy)pyridine], which IC50 is on record?
Answer: Its IC50 is less than 1000 µM.

Question: Which IC50 does the source give for O=S(=O)(Nc1ccc(Cl)c(COc2cccnc2)c1)c1ccccc1 [Compound 55, N-(4-Chloro-3-(pyridin-3-yloxymethyl)-phenyl]-benzenesulfonamide] here?
Answer: Its IC50 is less than 200 µM.

Same assay, conditions: Table 2; MKK6-activated p38, MBP substrate, 50 minutes

Question: With CC(C)(C)c1cc(NC(=O)Nc2ccc(F)c(COc3cnccn3)c2)n(-c2ccc(S(C)(=O)=O)cc2)n1 [Compound 163, 1-[5-tert-Butyl-2-(4-methanesulfonyl-phenyl)-2H-pyrazol-3-yl]-3-[4-fluoro-3-(pyrazin-2-yloxymethyl)-phenyl]-urea] as the molecule, how does the IC50 read?
Answer: The IC50 was less than 2 µM.

Question: How did the IC50 turn out when CC(C)(C)c1cc(NC(=O)Nc2ccc(F)c(COc3cnccn3)c2)n(-c2nc3ccccc3s2)n1 [Compound 155, 1-(2-Benzothiazol-2-yl-5-tert-butyl-2H-pyrazol-3-yl)-3-[4-fluoro-3-(pyrazin-2-yloxymethyl)-phenyl]-urea] was run?
Answer: The IC50 was less than 20 µM.

Question: O=C(CN1CCCCC1)Nc1cnc(OCc2c(Cl)cccc2Cl)cn1 [Compound 172] was tested. Which IC50 did it give?
Answer: The IC50 was less than 200 µM.

Question: With CC(C)(C)c1cc(C(=O)Nc2ccc(F)c(COc3cnccn3)c2)n(Cc2ccc(F)cc2)n1 [Compound 136, 5-tert-Butyl-2-(4-fluoro-benzyl)-2H-pyrazole-3-carboxylic acid [4-fluoro-3-(pyrazin-2-yloxymethyl)-phenyl]-amide] as the molecule, how does the IC50 read?
Answer: The IC50 was less than 20 µM.

Question: How did the IC50 turn out when Nc1ncc(OCc2ccccc2)nc1Br [Compound 84] was run?
Answer: The IC50 was less than 1000 µM.

Question: With O=C(Nc1ccc(F)c(COc2cnccn2)c1)c1cccc(S(=O)(=O)N2CCOCC2)c1 [Compound 98, N-[4-Fluoro-3-(pyrazin-2-yloxymethyl)-phenyl]-3-(morpholine-4-sulfonyl)-benzamide] as the molecule, how does the IC50 read?
Answer: Its IC50 is less than 2 µM.

Question: Which IC50 does the source give for CC(C)c1nnc(NC(=O)Nc2ccc(F)c(COc3cnccn3)c2)s1 [Compound 97, 1-[4-Fluoro-3-(pyrazin-2-yloxymethyl)-phenyl]-3-(5-isopropyl-[1,3,4]thiadiazol-2-yl)-urea] here?
Answer: The IC50 was less than 20 µM.

Question: CC1(C(=O)Nc2cnc(OCc3c(Cl)cccc3Cl)cn2)CC1 [Compound 168] was tested. Which IC50 did it give?
Answer: Its IC50 is less than 200 µM.

Question: With Clc1cccc(Cl)c1COc1cnccn1 [Compound 87] as the molecule, how does the IC50 read?
Answer: Its IC50 is less than 200 µM.

Question: How did the IC50 turn out when O=C(Nc1ccc(F)c(COc2cnccn2)c1)Nc1cc(-c2ccc(Cl)cc2)nn1-c1ccc(F)cc1 [Compound 132, 1-[5-(4-Chloro-phenyl)-2-(4-fluoro-phenyl)-2H-pyrazol-3-yl]-3-[4-fluoro-3-(pyrazin-2-yloxymethyl)-phenyl]-urea] was run?
Answer: The IC50 was less than 2 µM.

Question: Which IC50 does the source give for O=C(Nc1ccc(F)c(COc2cnccn2)c1)Nc1nnc(Cc2ccccc2)s1 [Compound 121, 1-(5-Benzyl-[1,3,4]thiadiazol-2-yl)-3-[4-fluoro-3-(pyrazin-2-yloxymethyl)-phenyl]-urea] here?
Answer: The IC50 was less than 2 µM.

Question: Which IC50 does the source give for Nc1cnc(OCc2ccccc2)cn1 [Compound 86] here?
Answer: Its IC50 is less than 1000 µM.

Question: For O=C(Nc1ccc(F)c(COc2cnccn2)c1)Nc1cc(-c2ccc(Cl)cc2)nn1-c1ccccc1 [Compound 128, 1-[5-(4-Chloro-phenyl)-2-phenyl-2H-pyrazol-3-yl]-3-[4-fluoro-3-(pyrazin-2-yloxymethyl)-phenyl]-urea], which IC50 is on record?
Answer: Its IC50 is less than 2 µM.

Question: Which IC50 does the source give for O=C(Nc1ccc(F)c(COc2cnccn2)c1)Nc1cc(C2CCCO2)nn1-c1ccc(F)cc1 (stereo not shown) [Compound 161, 1-[2-(4-Fluoro-phenyl)-5-(tetrahydro-furan-2-yl)-2H-pyrazol-3-yl]-3-[4-fluoro-3-(pyrazin-2-yloxymethyl)-phenyl]-urea] here?
Answer: Its IC50 is less than 2 µM.

Question: Which IC50 does the source give for CC(C)(C)C(=O)Nc1cnc(OCc2c(Cl)cccc2Cl)cn1 [Compound 167] here?
Answer: Its IC50 is less than 200 µM.

Question: For NS(=O)(=O)CCNC(=O)c1cnc(OCc2c(Cl)cccc2Cl)cn1 [Compound 138, 5-(2,6-dichloro-benzyloxy)-pyrazine-2-carboxylic acid (2-sulfamoyl-ethyl)-amide], which IC50 is on record?
Answer: Its IC50 is less than 1000 µM.

Question: Which IC50 does the source give for CC(C)(C)c1cc(NC(=O)Nc2ccc(F)c(COc3cnccn3)c2)n(-c2ccc(Cl)cc2)n1 [Compound 127, 1-[5-tert-Butyl-2-(4-chloro-phenyl)-2H-pyrazol-3-yl]-3-[4-fluoro-3-(pyrazin-2-yloxymethyl)-phenyl]-urea] here?
Answer: The IC50 was less than 2 µM.

Question: With O=C(Nc1ccc(F)c(COc2cnccn2)c1)Nc1nnc(-c2ccccc2)s1 [Compound 115, 1-[4-Fluoro-3-(pyrazin-2-yloxymethyl)-phenyl]-3-(5-phenyl-[1,3,4]thiadiazol-2-yl)-urea] as the molecule, how does the IC50 read?
Answer: Its IC50 is less than 200 µM.

Question: With O=C(CN1CCOCC1)Nc1cnc(OCc2c(Cl)cccc2Cl)cn1 [Compound 171] as the molecule, how does the IC50 read?
Answer: Its IC50 is less than 200 µM.

Question: With CC(C)(C)c1cc(NC(=O)Nc2ccc(Cl)c(COc3cnccn3)c2)[nH]n1 [Compound 95] as the molecule, how does the IC50 read?
Answer: The IC50 was less than 20 µM.

Question: With Clc1cccc(Cl)c1COc1cnc(NC2CCOCC2)cn1 [Compound 166] as the molecule, how does the IC50 read?
Answer: The IC50 was less than 200 µM.

Question: O=C(Nc1ccc(F)c(COc2cnccn2)c1)Nc1nnc(CC2CC2)s1 [Compound 96, 1-(5-Cyclopropylmethyl-[1,3,4]thiadiazol-2-yl)-3-[4-fluoro-3-(pyrazin-2-yloxymethyl)-phenyl]-urea] was tested. Which IC50 did it give?
Answer: The IC50 was less than 2 µM.

Question: O=C(Nc1ccc(F)c(COc2cnccn2)c1)Nc1cc(-c2ccccc2)nn1-c1ccccc1 [Compound 134, 1-(2,5-Diphenyl-2H-pyrazol-3-yl)-3-[4-fluoro-3-(pyrazin-2-yloxymethyl)-phenyl]-urea] was tested. Which IC50 did it give?
Answer: Its IC50 is less than 2 µM.

Question: CC(C)(C)c1cc(NC(=O)Nc2ccc(F)c(COc3cnccn3)c2)n(-c2ccc(Cl)nn2)n1 [Compound 156, 1-[5-tert-Butyl-2-(6-chloro-pyridazin-3-yl)-2H-pyrazol-3-yl]-3-[4-fluoro-3-(pyrazin-2-yloxymethyl)-phenyl]-urea] was tested. Which IC50 did it give?
Answer: Its IC50 is less than 2 µM.

Question: Which IC50 does the source give for O=C(Nc1ccc(F)c(COc2cnccn2)c1)c1cccc(Oc2ccccc2)c1 [Compound 102, N-[4-Fluoro-3-(pyrazin-2-yloxymethyl)-phenyl]-3-phenoxy-benzamide] here?
Answer: The IC50 was less than 2 µM.

Question: Which IC50 does the source give for O=C(Nc1ccc(F)c(COc2cnccn2)c1)c1ccc(-c2ccccc2)cc1 [Compound 133, Biphenyl-4-carboxylic acid [4-fluoro-3-(pyrazin-2-yloxymethyl)-phenyl]-amide] here?
Answer: Its IC50 is less than 200 µM.

Question: Which IC50 does the source give for CC(C)(C)c1cccc(C(=O)Nc2ccc(F)c(COc3cnccn3)c2)c1 [Compound 103, 3-tert-Butyl-N-[4-fluoro-3-(pyrazin-2-yloxymethyl)-phenyl]-benzamide] here?
Answer: The IC50 was less than 2 µM.

Question: With O=C(Nc1cnc(OCc2c(Cl)cccc2Cl)cn1)N1CCOCC1 [Compound 175] as the molecule, how does the IC50 read?
Answer: Its IC50 is less than 2 µM.

Question: CC(C)(C)c1cc(NC(=O)Oc2cccc(COc3cnccn3)c2)n(-c2ccccc2)n1 [Compound 142] was tested. Which IC50 did it give?
Answer: The IC50 was less than 200 µM.

Source: patent publication US20060063782A1, “3-Hetero arylmethoxy ! pyridines and their analogues as p38 map kinase inhibitors” (priority 2002, published 2006)
